Results published in patent US5840684A, “Glycopeptide antibiotic derivatives” (Eli Lilly and Company, priority 1995, dated 1998).
≈ marks a conversion by molar mass, not a printed value.

Columns and labels:
[1] = system: Staphylococcus aureus S13E; type: cell-based
Protocol: (§1) The MIC's were determined using a standard broth micro-dilution assay.

[2] = system: Staphylococcus aureus SA1199B; type: cell-based
Protocol: as §1

[3] = system: Entercoccus faecium 180-1; experiment: broth micro-dilution MIC; type: cell-based
Protocol: as §1

Entercoccus faecium 276 = experiment: broth micro-dilution MIC; type: cell-based
Protocol: as §1

[4] = system: Staphylococcus aureus 447; experiment: broth micro-dilution MIC; type: cell-based
Protocol: as §1

[5] = system: Staphylococcus aureus 489; experiment: broth micro-dilution MIC; type: cell-based
Protocol: as §1

[6] = system: Staphylococcus aureus SA1199A; experiment: broth micro-dilution MIC; type: cell-based
Protocol: as §1

[7] = system: Staphylococcus aureus SA1199; experiment: broth micro-dilution MIC; type: cell-based
Protocol: as §1

[8] = system: Staphylococcus aureus X400; experiment: broth micro-dilution MIC; type: cell-based
Protocol: as §1

[9] = system: Streptococcus pyogenes C203; experiment: broth micro-dilution MIC; type: cell-based
Protocol: as §1

Entercoccus faecium 180 = experiment: broth micro-dilution MIC; type: cell-based; settings: Entercoccus faecium 180
Protocol: (§2) The formula I compounds have in vitro and in vivo activity against Gram-positive pathogenic bacteria. The MIC's were determined using a standard broth micro-dilution assay.

Entercoccus faecium 2041 = experiment: broth micro-dilution MIC; type: cell-based; settings: Entercoccus faecium 2041
Protocol: as §2

[10] = system: Staphylococcus epidermidis 270; experiment: broth micro-dilution MIC; type: cell-based
Protocol: as §2

[11] = system: Staphylococcus haemolyticus 105; experiment: broth micro-dilution MIC; type: cell-based
Protocol: as §2

[12] = system: Staphylococcus haemolyticus 415; experiment: broth micro-dilution MIC; type: cell-based
Protocol: as §2

[13] = system: Streptococcus pneumoniae P1; experiment: broth micro-dilution MIC; type: cell-based
Protocol: as §2

[14] = system: vancomycin-resistant enterococci; experiment: broth micro-dilution, mean geometric MIC; type: cell-based, Enterococcus faecium and Enterococcus faecalis; settings: enterococci, 24-hour incubation
[15] = system: Staphylococcus aureus 446; experiment: broth micro-dilution MIC; type: cell-based
Protocol: as §1

[16] = system: Staphylococcus aureus X778; experiment: broth micro-dilution MIC; type: cell-based
Protocol: as §1

[17] = system: Enterococcus gallinarum 245; experiment: broth micro-dilution MIC; type: cell-based; settings: Enterococcus gallinarum 245
Protocol: as §2

[18] = system: vancomycin-susceptible enterococci; experiment: broth micro-dilution, mean geometric MIC; type: cell-based, Enterococcus faecium and Enterococcus faecalis; settings: enterococci, 24-hour incubation

Compound | MIC [1] | MIC [2] | MIC [3] | MIC (Entercoccus faecium 276) | MIC [4] | MIC [5] | MIC [6] | MIC [7] | MIC [8] | MIC [9] | MIC (Entercoccus faecium 180) | MIC (Entercoccus faecium 2041) | MIC [11] | MIC [12] | MIC [13] | mean geometric MIC, Vancomycin Resistant Strains [14] | MIC [15] | MIC [16] | MIC [17] | mean geometric MIC, Vancomycin Sensitive Strains [18] | other results
CNC(CC(C)C)C(=O)NC1C(=O)NC(CC(N)=O)C(=O)NC2C(=O)NC3C(=O)NC(C(=O)NC(C(=O)O)c4cc(O)cc(O)c4-c4cc3ccc4O)C(OC3CC(C)(N)C(O)C(C)O3)c3ccc(c(Cl)c3)Oc3cc2cc(c3OC2OC(CO)C(O)C(O)C2OC2CC(C)(NCc3ccc(OC(C)=O)cc3)C(O)C(C)O2)Oc2ccc(cc2Cl)C1O (stereo not shown) [Compound 138] | ≤ 0.06 mg/L | 0.5 mg/L (≈ 0.287 µM) | ≤ 0.06 mg/L | ≤ 0.06 mg/L | 2 mg/L (≈ 1.15 µM) | ≤ 0.06 mg/L | ≤ 0.06 mg/L | ≤ 0.06 mg/L | ≤ 0.0606 mg/L | ≤ 0.06 mg/L | 4 mg/L (≈ 2.3 µM) | ≤ 0.06 mg/L | 4 mg/L (≈ 2.3 µM) | 8 mg/L (≈ 4.6 µM) | ≤ 0.06 mg/L | 38 mg/L |  |  |  |  | MIC [10]: 2 mg/L (≈ 1.15 µM)
CNC(CC(C)C)C(=O)NC1C(=O)NC(CC(N)=O)C(=O)NC2C(=O)NC3C(=O)NC(C(=O)NC(C(=O)O)c4cc(O)cc(O)c4-c4cc3ccc4O)C(OC3CC(C)(N)C(O)C(C)O3)c3ccc(c(Cl)c3)Oc3cc2cc(c3OC2OC(CO)C(O)C(O)C2OC2CC(C)(NCc3ccc(Oc4ccc(OC)cc4)cc3)C(O)C(C)O2)Oc2ccc(cc2Cl)C1O (stereo not shown) [Compound 98] | 0.5 mg/L (≈ 0.277 µM) | 1 mg/L (≈ 0.554 µM) | ≤ 0.06 mg/L | 0.125 mg/L (≈ 0.0693 µM) |  | ≤ 0.06 mg/L | ≤ 0.06 mg/L | 0.5 mg/L (≈ 0.277 µM) | ≤ 0.06 mg/L | ≤ 0.06 mg/L |  | ≤ 0.06 mg/L | 1 mg/L (≈ 0.554 µM) | 1 mg/L (≈ 0.554 µM) | ≤ 0.06 mg/L | 2.4 mg/L | 0.5 mg/L (≈ 0.277 µM) | ≤ 0.06 mg/L | 1 mg/L (≈ 0.554 µM) | 0.095 mg/L | MIC [10]: ≤ 0.06 mg/L
CNC(CC(C)C)C(=O)NC1C(=O)NC(CC(N)=O)C(=O)NC2C(=O)NC3C(=O)NC(C(=O)NC(C(=O)O)c4cc(O)cc(O)c4-c4cc3ccc4O)C(OC3CC(C)(N)C(O)C(C)O3)c3ccc(c(Cl)c3)Oc3cc2cc(c3OC2OC(CO)C(O)C(O)C2OC2CC(C)(NCC3CCC(c4ccccc4)C3)C(O)C(C)O2)Oc2ccc(cc2Cl)C1O (stereo not shown) [Compound 140] | ≤ 0.06 mg/L | ≤ 0.06 mg/L | ≤ 0.06 mg/L | 0.5 mg/L (≈ 0.286 µM) |  | ≤ 0.06 mg/L | ≤ 0.06 mg/L | ≤ 0.06 mg/L | ≤ 0.06 mg/L | ≤ 0.06 mg/L | 1 mg/L (≈ 0.571 µM) | ≤ 0.06 mg/L | 2 mg/L (≈ 1.14 µM) | 8 mg/L (≈ 4.57 µM) | ≤ 0.06 mg/L | 6.7 mg/L |  |  | 8 mg/L (≈ 4.57 µM) | 0.19 mg/L | 
CNC(CC(C)C)C(=O)NC1C(=O)NC(CC(N)=O)C(=O)NC2C(=O)NC3C(=O)NC(C(=O)NC(C(=O)O)c4cc(O)cc(O)c4-c4cc3ccc4O)C(OC3CC(C)(N)C(O)C(C)O3)c3ccc(c(Cl)c3)Oc3cc2cc(c3OC2OC(CO)C(O)C(O)C2OC2CC(C)(NCc3cccc4c([N+](=O)[O-])cccc34)C(O)C(C)O2)Oc2ccc(cc2Cl)C1O (stereo not shown) [Compound 25] | ≤ 0.06 mg/L |  | ≤ 0.06 mg/L | 0.25 mg/L (≈ 0.141 µM) |  | ≤ 0.06 mg/L | ≤ 0.06 mg/L | ≤ 0.06 mg/L | ≤ 0.06 mg/L | ≤ 0.06 mg/L |  | 0.25 mg/L (≈ 0.141 µM) |  |  | ≤ 0.06 mg/L | 4.0 mg/L |  | ≤ 0.06 mg/L | ≤ 0.06 mg/L | 0.22 mg/L | 
CNC(CC(C)C)C(=O)NC1C(=O)NC(CC(N)=O)C(=O)NC2C(=O)NC3C(=O)NC(C(=O)NC(C(=O)O)c4cc(O)cc(O)c4-c4cc3ccc4O)C(OC3CC(C)(N)C(O)C(C)O3)c3ccc(c(Cl)c3)Oc3cc2cc(c3OC2OC(CO)C(O)C(O)C2OC2CC(C)(NCc3ccccc3O)C(O)C(C)O2)Oc2ccc(cc2Cl)C1O (stereo not shown) [Compound 169] | ≤ 0.06 mg/L | 0.125 mg/L (≈ 0.0736 µM) | ≤ 0.06 mg/L | ≤ 0.06 mg/L | 2 mg/L (≈ 1.18 µM) | ≤ 0.06 mg/L | ≤ 0.06 mg/L | ≤ 0.06 mg/L | ≤ 0.06 mg/L | ≤ 0.06 mg/L | 1 mg/L (≈ 0.589 µM) | ≤ 0.06 mg/L | 2 mg/L (≈ 1.18 µM) | 4 mg/L (≈ 2.35 µM) | ≤ 0.06 mg/L | 19 mg/L |  | ≤ 0.06 mg/L | 4 mg/L (≈ 2.35 µM) | 0.50 mg/L | 
CNC(CC(C)C)C(=O)NC1C(=O)NC(CC(N)=O)C(=O)NC2C(=O)NC3C(=O)NC(C(=O)NC(C(=O)O)c4cc(O)cc(O)c4-c4cc3ccc4O)C(OC3CC(C)(N)C(O)C(C)O3)c3ccc(c(Cl)c3)Oc3cc2cc(c3OC2OC(CO)C(O)C(O)C2OC2CC(C)(NCCc3ccccc3OCc3ccccc3)C(O)C(C)O2)Oc2ccc(cc2Cl)C1O (stereo not shown) [Compound 59] | 0.125 mg/L (≈ 0.0693 µM) | 0.5 mg/L (≈ 0.277 µM) | ≤ 0.06 mg/L | 0.125 mg/L (≈ 0.0693 µM) | 1 mg/L (≈ 0.555 µM) | 0.125 mg/L (≈ 0.0693 µM) | ≤ 0.06 mg/L | 0.125 mg/L (≈ 0.0693 µM) |  | ≤ 0.06 mg/L | 8 mg/L (≈ 4.44 µM) | 0.5 mg/L (≈ 0.277 µM) | 8 mg/L (≈ 4.44 µM) | 8 mg/L (≈ 4.44 µM) | ≤ 0.06 mg/L | 51 mg/L | 0.5 mg/L (≈ 0.277 µM) | ≤ 0.06 mg/L | 1 mg/L (≈ 0.555 µM) | 0.42 mg/L | MIC [10]: 1 mg/L (≈ 0.555 µM)
CNC(CC(C)C)C(=O)NC1C(=O)NC(CC(N)=O)C(=O)NC2C(=O)NC3C(=O)NC(C(=O)NC(C(=O)O)c4cc(O)cc(O)c4-c4cc3ccc4O)C(OC3CC(C)(N)C(O)C(C)O3)c3ccc(c(Cl)c3)Oc3cc2cc(c3OC2OC(CO)C(O)C(O)C2OC2CC(C)(NCc3ccc(-c4ccc(OC)cc4)cc3)C(O)C(C)O2)Oc2ccc(cc2Cl)C1O (stereo not shown) [Compound 54] | 0.5 mg/L (≈ 0.28 µM) | 1 mg/L (≈ 0.559 µM) | ≤ 0.06 mg/L | 1 mg/L (≈ 0.559 µM) |  | ≤ 0.06 mg/L | ≤ 0.06 mg/L | 0.5 mg/L (≈ 0.28 µM) | ≤ 0.06 mg/L | ≤ 0.06 mg/L | 1 mg/L (≈ 0.559 µM) | ≤ 0.06 mg/L | 2 mg/L (≈ 1.12 µM) | 1 mg/L (≈ 0.559 µM) | ≤ 0.06 mg/L | 1.7 mg/L | 1 mg/L (≈ 0.559 µM) | ≤ 0.06 mg/L | 0.5 mg/L (≈ 0.28 µM) | 0.56 mg/L | 
CNC(CC(C)C)C(=O)NC1C(=O)NC(CC(N)=O)C(=O)NC2C(=O)NC3C(=O)NC(C(=O)NC(C(=O)O)c4cc(O)cc(O)c4-c4cc3ccc4O)C(OC3CC(C)(N)C(O)C(C)O3)c3ccc(c(Cl)c3)Oc3cc2cc(c3OC2OC(CO)C(O)C(O)C2OC2CC(C)(NCc3ccc(-c4ccc(OC)c(OC)c4)cc3)C(O)C(C)O2)Oc2ccc(cc2Cl)C1O (stereo not shown) [Compound 215] | 2 mg/L (≈ 1.1 µM) | 1 mg/L (≈ 0.55 µM) | ≤ 0.06 mg/L | 2 mg/L (≈ 1.1 µM) | 0.5 mg/L (≈ 0.275 µM) | 2 mg/L (≈ 1.1 µM) | 0.5 mg/L (≈ 0.275 µM) | ≤ 0.06 mg/L | 0.5 mg/L (≈ 0.275 µM) | ≤ 0.06 mg/L | ≤ 0.06 mg/L |  | 2 mg/L (≈ 1.1 µM) | 1 mg/L (≈ 0.55 µM) | ≤ 0.06 mg/L | 2.8 mg/L | 0.5 mg/L (≈ 0.275 µM) | ≤ 0.06 mg/L |  |  | 
